Assay [1] concerns the target D328R Gαi GDP (Rattus norvegicus, UniProt P10824, D328R/INS119HHHHHH). The experiment in a line: SPR binding to immobilized peptide, D328R GDP. Particulars: pH 7.4.
For assay [2], the target named is I56C/Q333C Gαi GDP (Rattus norvegicus, UniProt P10824, I56C/INS119HHHHHH/Q333C). The experiment in a line: SPR binding to immobilized peptide, I56C/Q333C GDP. The settings on record: pH 7.4. A general note: Surface plasmon resonance follows binding to a sensor surface in real time, without labels.
The target in assay [3] is WT Gαi GDP (Rattus norvegicus, UniProt P10824, INS119HHHHHH). The experiment in a line: SPR binding to immobilized peptide, wild-type GDP. Particulars: pH 7.4.
In assay [4] the target is WT Gαi GDP •AlF4^− (Rattus norvegicus, UniProt P10824, INS119HHHHHH). The experiment in a line: SPR binding to immobilized peptide, wild-type GDP-AlF4^−. Particulars: pH 7.4.
For assay [5], the target named is D328R Gαi GDP•AlF4^− (Rattus norvegicus, UniProt P10824, D328R/INS119HHHHHH). The experiment in a line: SPR binding to immobilized peptide, D328R GDP-AlF4^−. Particulars: pH 7.4.
Assay [6] concerns the target I56C/Q333C Gαi GDP•AlF4^− (Rattus norvegicus, UniProt P10824, I56C/INS119HHHHHH/Q333C). The experiment in a line: SPR binding to immobilized peptide, I56C/Q333C GDP-AlF4^−. Particulars: pH 7.4.
Assay [7] addresses T1, wild-type Gαi1 subunit (rat, UniProt P10824 2-354). The experiment in a line: SPR.
Assay [8] concerns the target T2, D328R Gαi1 subunit (rat, UniProt P10824 2-354, D328R). The experiment in a line: SPR.
Assay [9] deals with T1, wild-type Gαi1 subunit. The experiment in a line: SPR. The source holds these as a separate data set.
In assay [10] the target is T2, D328R Gαi1 subunit. The experiment in a line: SPR. The source holds these as a separate data set.

Read-outs that look alike come from different tables or passages of the source. Ends that are not written are not given here. Peptide text beside a SMILES is read from it. * marks the point of attachment. Biotin = O=C1N[C@H]2[C@H](CS[C@H]2CCCCC(=O)*)N1

Broadly, the koff is the first-order rate constant of dissociation. A high value points to fast dissociation. A word on the kon: it is the rate constant with which the complex forms. Read a low kon as slower complex formation. With `CSCC[C@H](NC(=O)[C@H](CC(C)C)NC(=O)[C@H](Cc1ccccc1)NC(=O)[C@H](CC(=O)O)NC(=O)[C@H](Cc1ccc(O)cc1)NC(=O)[C@H](Cc1c[nH]c2ccccc12)NC(=O)[C@@H](NC(=O)[C@@H](NC(=O)[C@H](CCCNC(=N)N)NC(=O)[C@@H](N)CO)C(C)C)[C@@H](C)O)C(=O)N[C@@H](CCC(=O)O)C(=O)N[C@@H](CC(=O)O)C(=O)N[C@H](C(=O)N[C@@H](CCCCN)C(=O)N[C@@H](CO)C(=O)N[C@@H](CCCNC(=N)N)C(=O)O)[C@@H](C)O` [KB-752] (H-SRVTWYDFLMEDTKSR-OH), the koff came to 0.01 ± 0.001 s⁻¹ in assay [1], 0.22 ± 0.03 s⁻¹ in assay [2] and 0.06 ± 0.01 s⁻¹ in assay [3]. Moreover, the kon in assay [1] amounted to 8560 M⁻¹ s⁻¹; in [2], 7750 M⁻¹ s⁻¹; in [3], 21100 M⁻¹ s⁻¹.

For `CC[C@H](C)[C@H](NC(=O)CNC(=O)[C@H](Cc1c[nH]cn1)NC(=O)[C@H](Cc1ccc(O)cc1)NC(=O)[C@H](Cc1ccc(O)cc1)NC(=O)CNC(=O)[C@H](CCCNC(=N)N)NC(=O)[C@H](CO)NC(=O)[C@@H](N)CO)C(=O)N[C@@H](Cc1c[nH]c2ccccc12)C(=O)N[C@H](C(=O)NCC(=O)N[C@@H](CCC(=O)O)C(=O)N[C@@H](CCC(=O)O)C(=O)NCC(=O)N[C@@H](CCCNC(=N)N)C(=O)N[C@@H](CC(C)C)C(=O)N[C@@H](CO)C(=O)N[C@@H](CCCNC(=N)N)C(=O)O)C(C)C` [KB-1753] (H-SSRGYYHGIWVGEEGRLSR-OH), the koff in assay [4] came to 0.025 ± 0.001 s⁻¹; in [5], 0.003 ± 0.0004 s⁻¹; in [6], 0.006 ± 0.0008 s⁻¹. The values for the kon in assay [4], in [5] and in assay [6] were 22900 M⁻¹ s⁻¹, 8810 M⁻¹ s⁻¹ and 16800 M⁻¹ s⁻¹, respectively.

As a reminder, the Kd is the free concentration of one partner at which half of the binding sites on the other are occupied at equilibrium, for simple one-to-one binding. Read a high Kd as lower affinity. Take Biotin-SRVTWYDFLMEDTKSR [peptide KB-752]: the Kd worked out at 2840 ± 810 nM in assay [7] and 1280 ± 20 nM in assay [8].

Biotin-SSRGYYHGIWVGEEGRLSR [peptide KB-1753]: the Kd in [9] stood at 1100 ± 100 nM; in [10] it was 260 ± 40 nM.

The values above are taken from PMC2736342 (Biochemistry, 2009).
